The values below come from patent publication US11629166B2, “Compound for treating clostridium difficile” (priority 2014, dated 2023).

What all share (format): cell-based, Clostridium Difficile
In experiment [1] the test system is C. Difficile NCTC 11204 and ribotype 027 (R20291) spores. The experiment can be described thus: Germination tests, heat shock method (heat vs ice). Conditions: 2% (w/v) germination solution, 1 hour, strains 11204 and 027; for >1 log reduction on ice: control samples kept on ice, reduction suggests sporicide or germinant/antimicrobial; for >1 log reduction on heat: then 70° C. for 20 minutes, reduction suggests germinant. How it is done: Many of the synthesised compounds were tested for their germinating and antimicrobial abilities against C. Difficile. Due to the insolubility of some of the compounds in water, DMSO, ethanol and methanol were used to dissolve the compounds.
The C. Difficile reference strain, NCTC 11204 and C. Difficile ribotype 027 (R20291) (Anaerobic Reference Laboratory, Cardiff, UK) were used during testing.
Spore suspensions of C. Difficile were prepared following the method proposed by Shetty et al. (1999). Briefly, Columbia base agar plates were inoculated with the relevant strain of C. Difficile and incubated for 72 hours anaerobically at 37° C. (MiniMACS anaerobic cabinet, Don Whitley Scientific, Shipley, UK). Then, the plates were removed and left or 24 hours in aerobic conditions at room temperature. Colonies were then harvested into 20 mL of 50% (w/v) ethanol and 50% saline, and vortex thoroughly. These were stored at 4° C. until needed.
All experiments were performed in triplicate using spore suspensions containing 1×10^7 CFU mL^−1 spores of C. difficile NCTC 11204 and ribotype 027.
Before use, 1 mL of spores were centrifuged at 13000 rpm for 10 minutes (Spectrafuge 24D; Labnet, Woodbridge, USA). The supernatant was discarded, and the pellet resuspended in 1 mL sterile distilled water and vortex mixed thoroughly.
Germination solutions were prepared using 2% (w/v) of the compound in diluent (DMSO, ethanol, methanol, water) plus double strength thioglycollate medium (Oxoid, UK).
For the heat shock method, 100 μl spores were exposed to 100 μl of the germination solution and incubated at room temperature in air for 1 hour. The entire 200 μl sample was then added to 800 μl sterile distilled water to dilute out the germinant to ineffective concentrations. Samples were placed on heat at 70° C. for 20 minutes to eliminate any germinated, metabolically active spores. Control samples were kept on ice. Solutions were then diluted accordingly using sterile distilled water, and cultured onto fastidious anaerobic agar (Lab M, Bury, UK), supplemented with 0.1% (w/v) sodium taurocholate (ST) and 5% (w/v) defibrinated horse blood using the Miles and Misra method (Miles et al., 1938). These were then incubated anaerobically for 48 hours at 37° C. (MiniMACS anaerobic cabinet, Don Whitley Scientific, Shipley, UK) and the CFU mL^−1 counted.
The results from the table above show the compounds that gave a 1 log reduction or more between the initial spore count and the spore count after the heat and ice treatment. […] Due to the nature of this test, it is difficult to distinguish between the two.

For experiment [2], the system named is C. Difficile spores. Kind of experiment: Germination and antimicrobial efficiency (dual activity) of compound 129 in HDPE. Conditions: for % Reduction 2 hours / Log Reduction 2 hours / % Reduction 24 hours / Log Reduction 24 hours / % Reduction 96 hours / Log Reduction 96 hours: HDPE polymer. From the text:
Reactively processed HDPE polymer containing compound 129 is shown to have the ability to both germinate the spores of C. […] This exemplifies, therefore, the dual action of compound 129 and its efficacy both as a germinant and an antimicrobial.

For experiment [3], the system named is C. Difficile spores. Kind of experiment: Germination activity of compound 129 reactively processed with HDPE after subsequent exposure to ethanol. The settings on record: for % Reduction 2 hours / Log Reduction 2 hours / % Reduction 24 hours / Log Reduction 24 hours / % Reduction 96 hours / Log Reduction 96 hours: HDPE polymer film, after ethanol exposure. How it is done: HDPE (high density polyethylene) samples containing the modified bile salt compound 129, reactively processed under different compression moulding conditions, were tested to determine the germination activity. […] Difficile spores. This confirms the germination activity of compound 129 when incorporated into HDPE by reactive processing.

Molecules are shown by their SMILES.

As for `CCC[N+]1(CCNC(=O)CC[C@@H](C)[C@H]2CC[C@H]3[C@@H]4[C@H](O)C[C@@H]5C[C@H](O)CC[C@]5(C)[C@H]4C[C@H](O)[C@]23C)CCCC1.[I-]` [Compound 45], in experiment [1], the “>1 log reduction on ice” value was “yes” and the “>1 log reduction on heat” value was “yes”.
Consider `C[C@H](CCC(=O)NCCN1CCCC1)[C@H]1CC[C@H]2[C@@H]3[C@H](O)C[C@@H]4C[C@H](O)CC[C@]4(C)[C@H]3C[C@H](O)[C@]12C` [Compound 10], for which, in experiment [1], the “>1 log reduction on heat” value is listed as “Yes (11204)”.
The same measure, in the same setting: the same measure for `CCCCCCCCCCCCCCCCCCNC(=O)CC[C@@H](C)[C@H]1CC[C@H]2[C@@H]3[C@H](O)C[C@@H]4C[C@H](O)CC[C@]4(C)[C@H]3C[C@H](O)[C@]12C` [Compound 16]: “Yes (11204 and 027)”; for `CCCCCC[N+](C)(C)CCCNC(=O)CC[C@@H](C)[C@H]1CCC2C3C(C[C@H](O)[C@@]21C)[C@@]1(C)CC[C@@H](O)CC1C[C@H]3O` (stereo partly shown) [Compound 29]: “yes”.
For the compound `C[C@H](CCC(=O)NCC[N+]1(Cc2ccccc2)CCCC1)[C@H]1CC[C@H]2[C@@H]3[C@H](O)C[C@@H]4C[C@H](O)CC[C@]4(C)[C@H]3C[C@H](O)[C@]12C` [Compound 50], in experiment [1], the “>1 log reduction on ice” value is “yes” and the “>1 log reduction on heat” value is reported as “yes”.
On to `C=Cc1ccc(C[N+](C)(C)CCNC(=O)CC[C@@H](C)[C@H]2CCC3C4CCC5C[C@H](O)CC[C@]5(C)C4CC[C@@]32C)cc1.[Cl-]` (stereo partly drawn) [Compound 129, 2-[[(4R)-4-[(3R,10S,13R,17R)-3-hydroxy-10,13-dimethyl-2,3,4,5,6,7,8,9,11,-12,14,15,16,17-tetradecahydro-1H-cyclopenta[a]phenanthren-17-yl]pentanoyl]-amino]ethyl-dimethyl-[(4-vinylphenyl)methyl]ammonium chloride], for which, in the experiment on C. Difficile spores [2] (3% T101 165° C.), the “% Reduction 2 hours” value is on record as 96.9%, the “Log Reduction 2 hours” value amounted to 1.563 Log, the “% Reduction 24 hours” value is 86.9% and the “Log Reduction 24 hours” value was 0.940 Log. For the same compound, in the experiment with C. Difficile spores [2] (3% T101 165° C.), the “% Reduction 96 hours” value was found to be 78.0% and the “Log Reduction 96 hours” value came out at 0.714 Log. Also, in the experiment with C. Difficile spores [2] (3% T101 170° C.), the “% Reduction 2 hours” value came out at 79.6%, the “Log Reduction 2 hours” value came to 0.747 Log, the “% Reduction 24 hours” value came to 75.4% and the “Log Reduction 24 hours” value turned out to be 0.666 Log. Also, in the experiment with C. Difficile spores [2] (3% T101 170° C.), the “% Reduction 96 hours” value amounted to 88.5% and the “Log Reduction 96 hours” value came out at 0.998 Log. Besides, in the experiment on C. Difficile spores [2] (6% T101 160° C.), the “% Reduction 2 hours” value is recorded as 0.0%, the “Log Reduction 2 hours” value amounted to 0.057 Log, the “% Reduction 24 hours” value turned out to be 44.8% and the “Log Reduction 24 hours” value is listed as 0.315 Log. Moreover, in the experiment with C. Difficile spores [2] (6% T101 160° C.), the “% Reduction 96 hours” value is 86.8% and the “Log Reduction 96 hours” value was found to be 0.936 Log. Besides, the spore reduction with C. Difficile spores [2] (reactive processing of the polymer at 170° C.) was 79.6%. Besides, the “reduction of the subsequent metabolically active bio-load after spore germination” value with C. Difficile spores [2] (reactively processed HDPE polymer containing compound 129) is reported as 96.9%. Besides, the “germination activity, lower vs higher processing temperature” value in the experiment on C. Difficile spores [3] (3% films, samples processed at the lower temperature (165° C. vs 170° C.), after 24 and 46 hours) is “slightly higher level of germination activity”. In the experiment with C. Difficile spores [3] (3% T101 160° C.), the “% Reduction 2 hours” value is 79.8%, the “Log Reduction 2 hours” value came out at 0.752 Log, the “% Reduction 24 hours” value is on record as 67.6% and the “Log Reduction 24 hours” value was found to be 0.546 Log. In addition, in the experiment with C. Difficile spores [3] (3% T101 160° C.), the “% Reduction 96 hours” value amounted to 69.8% and the “Log Reduction 96 hours” value is given as 0.577 Log. In addition, in the experiment with C. Difficile spores [3] (3% T101 165° C.), the “% Reduction 2 hours” value was 99.2%, the “Log Reduction 2 hours” value is recorded as 2.165 Log, the “% Reduction 24 hours” value is listed as 97.1% and the “Log Reduction 24 hours” value amounted to 1.598 Log. In the experiment on C. Difficile spores [3] (3% T101 165° C.), the “% Reduction 96 hours” value is 92.0% and the “Log Reduction 96 hours” value is 1.154 Log. In the experiment on C. Difficile spores [3] (3% T101 170° C.), the “% Reduction 2 hours” value was 99.2%, the “Log Reduction 2 hours” value stood at 2.165 Log, the “% Reduction 24 hours” value is reported as 87.8% and the “Log Reduction 24 hours” value was 0.971 Log. Also, in the experiment with C. Difficile spores [3] (3% T101 170° C.), the “% Reduction 96 hours” value worked out at 82.0% and the “Log Reduction 96 hours” value was 0.802 Log. In addition, the germination activity result with C. Difficile spores [3] (HDPE samples with a higher amount of compound 129 (6%)) is given as “did not perform well”. Further, the “Log reduction compared to the HDPE/peroxide T101 control” value in the experiment with C. Difficile spores [3] (polymer film containing 3% of compound 129, prepared both at 165° C. and 170° C., at 2 hours) is on record as 2.2 Log. The “reduction in C. Difficile spores” value with C. Difficile spores [3] (prepared at 165° C./170° C., following subsequent exposure to ethanol) is listed as 99.2%.
As to `C[C@H](CCC(=O)NCCC[N+](C)(C)c1ccc(C(=O)c2ccccc2)cc1)[C@H]1CC[C@H]2[C@@H]3[C@H](O)C[C@@H]4C[C@H](O)CC[C@]4(C)[C@H]3C[C@H](O)[C@]12C.[Br-]` [2/148], in experiment [1], the “>1 log reduction on heat” value was “Yes (027)”.
Consider `C=CC[N+](C)(C)CCCNC(=O)CC[C@@H](C)[C@H]1CCC2C3C(C[C@H](O)[C@@]21C)[C@@]1(C)CC[C@@H](O)CC1C[C@H]3O.[Br-]` (stereo partly shown) [Compound 34, 3-cholanamidopropyl-allyl-dimethyl-ammonium;bromide], for which the “>1 log reduction on heat” value in experiment [1] is listed as “yes”.
`CCCCN(CCCC)CCCNC(=O)CC[C@@H](C)[C@H]1CC[C@H]2[C@@H]3[C@H](O)C[C@@H]4C[C@H](O)CC[C@]4(C)[C@H]3C[C@H](O)[C@]12C` [Compound 7]: in experiment [1], the “>1 log reduction on ice” value was “Yes (11204)” and the “>1 log reduction on heat” value was “Yes (11204)”.
Turning to `C[C@H](CCC(=O)NCC[N+]1(c2ccc(C(=O)c3ccccc3)cc2)CCCC1)[C@H]1CC[C@H]2[C@@H]3[C@H](O)C[C@@H]4C[C@H](O)CC[C@]4(C)[C@H]3C[C@H](O)[C@]12C.[Br-]` [2/150], in experiment [1], the “>1 log reduction on ice” value is recorded as “Yes (11204)”.
For `C[C@H](CCC(=O)NCc1ccccc1)[C@H]1CC[C@H]2[C@@H]3[C@H](O)C[C@@H]4C[C@H](O)CC[C@]4(C)[C@H]3C[C@H](O)[C@]12C` [Compound 2, cholic acid benzyl amide], in experiment [1], the “>1 log reduction on ice” value is “Yes (11204)”.
